From US20220257550A1, “REDUCING THE VIRAL ACTIVITY OF ELAFIBRANOR WITH RIBOFLAVIN OR DHA” (priority 2019, published 2022)

System: Phage T4
Assay: Phage T4 titer in liquid culture of E. coli followed by plaque assay on agar plates (PFU)
Type: cell-based, bacteriophage T4 / E. coli 613
Settings: compounds 0.02 mg/ml (each), vs untreated control, FIG. 1
Procedure: (§1) The number of phage particles (PFU) is given. Experiment were done in triplicate.
as §1
Nutritional Products Ltd (Kaiseraugst, Switzerland). All stock solutions were in 20 mg/ml DMSO. All compounds were used at a final concentration of 0.02 mg/ml.
E. coli was grown in liquid LB (lysogeny broth) medium. […] The number of phage particles (PFU) was determined by plating on agar.

SMILES	phage T4 PFU (number of phage particles) (MOI of 0.01, 3 hours at 30° C.)	phage T4 PFU (number of phage particles) (MOI of 100/1)
Cc1cc2nc3c(=O)[nH]c(=O)nc-3n(C[C@H](O)[C@H](O)[C@H](O)CO)c2cc1C [Riboflavin]	decreased	decreased
CSc1ccc(C(=O)/C=C/c2cc(C)c(OC(C)(C)C(=O)O)c(C)c2)cc1 [elafibranor, Elafibranor]	significantly increased	significantly increased
